What is called EC50 is the concentration needed to bring the measured effect to its halfway point. Read a high EC50 as lower potency in that assay.

The target in experiment [1] is NMDAR expressing GluN2B (NR2B) subunits (Rattus norvegicus, UniProt P35439+Q00960). The experiment is classed as cell-based.
Experiment [2] deals with N-methyl-D-aspartate receptor (NMDAR). Also on record: species or system Rattus norvegicus.

Molecules are shown by their SMILES.

Sequence of NMDAR expressing GluN2B (NR2B) subunits (Q00960 27-1482, other chains not shown): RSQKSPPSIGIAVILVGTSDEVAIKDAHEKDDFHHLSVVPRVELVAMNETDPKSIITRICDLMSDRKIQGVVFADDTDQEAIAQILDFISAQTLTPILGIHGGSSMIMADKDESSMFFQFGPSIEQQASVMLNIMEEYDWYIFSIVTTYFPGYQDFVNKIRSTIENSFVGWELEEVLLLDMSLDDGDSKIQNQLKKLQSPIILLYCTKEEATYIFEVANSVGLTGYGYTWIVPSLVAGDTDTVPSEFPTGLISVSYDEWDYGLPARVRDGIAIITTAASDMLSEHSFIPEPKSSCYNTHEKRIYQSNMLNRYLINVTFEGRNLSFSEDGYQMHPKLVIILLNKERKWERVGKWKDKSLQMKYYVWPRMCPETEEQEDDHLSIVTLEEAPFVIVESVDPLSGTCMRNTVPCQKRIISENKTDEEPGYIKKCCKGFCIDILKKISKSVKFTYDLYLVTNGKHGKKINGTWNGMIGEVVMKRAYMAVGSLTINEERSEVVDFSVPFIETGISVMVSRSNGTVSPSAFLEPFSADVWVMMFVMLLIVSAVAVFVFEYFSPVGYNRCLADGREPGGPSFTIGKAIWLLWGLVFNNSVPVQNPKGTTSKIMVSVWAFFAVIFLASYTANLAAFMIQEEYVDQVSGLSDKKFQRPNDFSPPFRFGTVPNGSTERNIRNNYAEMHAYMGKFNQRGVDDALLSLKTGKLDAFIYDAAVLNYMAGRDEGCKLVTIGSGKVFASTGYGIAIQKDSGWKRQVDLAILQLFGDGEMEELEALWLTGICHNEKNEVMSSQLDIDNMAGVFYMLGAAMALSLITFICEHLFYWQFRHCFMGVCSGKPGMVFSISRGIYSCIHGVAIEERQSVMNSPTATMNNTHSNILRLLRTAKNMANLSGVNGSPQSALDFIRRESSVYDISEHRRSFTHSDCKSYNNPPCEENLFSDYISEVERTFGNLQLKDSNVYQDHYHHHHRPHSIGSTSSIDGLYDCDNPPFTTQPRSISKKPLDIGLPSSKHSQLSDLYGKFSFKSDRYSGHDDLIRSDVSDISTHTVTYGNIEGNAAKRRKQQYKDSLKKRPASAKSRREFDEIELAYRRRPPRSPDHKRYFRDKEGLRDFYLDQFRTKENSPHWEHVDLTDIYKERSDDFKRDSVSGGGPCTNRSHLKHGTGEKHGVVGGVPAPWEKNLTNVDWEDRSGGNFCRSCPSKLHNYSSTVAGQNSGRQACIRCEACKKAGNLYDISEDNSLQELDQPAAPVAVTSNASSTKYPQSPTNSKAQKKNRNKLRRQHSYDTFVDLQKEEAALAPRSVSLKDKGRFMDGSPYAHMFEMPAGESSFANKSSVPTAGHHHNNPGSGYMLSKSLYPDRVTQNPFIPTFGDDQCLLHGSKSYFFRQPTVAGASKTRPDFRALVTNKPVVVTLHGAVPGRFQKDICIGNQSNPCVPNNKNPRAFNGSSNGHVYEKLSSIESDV

Turning to `CC(C(O)c1ccc(O)cc1)N1CCC(Cc2ccccc2)CC1` (centres unmarked) [ifenprodil], the “% inhibition at 10 μM” value in experiment [1] is recorded as 43.4 ± 7.3.
In the case of `CNC1(c2ccccc2Cl)CCCCC1=O` (racemic) [ketamine], the EC50 in experiment [2] was around 10 µM.

These data come from paper PMC4188808 (Neuropharmacology, 2014).
